In US10058562B2, “Methods of treatment of diseases” (Ampio Pharmaceuticals, Inc., priority 2012, dated 2018):
Read-outs that look alike come from different tables or passages of the source. Blank lines part the entries; values can stand above or below the compound they belong to.

Key:
[1] = tested on: human retinal endothelial cells; experiment: Actin stress fiber formation, VEGF (Example 10); format: cell-based; conditions: for change of VEGF stress fiber pattern: 30 minutes before VEGF 25 ng/ml
Experimental: . […] To counter-stain for nuclei, 100 μl of a 3 μM DAPI (4,6-diamidino-2-phenylindole, dilactate (Invitrogen)) solution was added to each well. After 5 minutes, the cells were washed two times with 100 μl PBS.

[2] = tested on: human retinal endothelial cells; experiment: ECIS resistance (Example 14); conditions: for persistence of ECIS increase: danazol 1.0 μM, S1P 1 μM, alone or in combination
Experimental: (§1) Electrical resistance was measured using the electric cell-substrate impedance sensing (ECIS) system (ECISZθ, obtained from Applied Biophysics) with 8-well multiple electrode plates (8W10E). […] The fibronectin solution was removed, and 400 μl of EGM-2 culture medium (Lonza) was added to each well. The plates were connected to the ECISZθ system and were electrically stabilized. The EGM-2 medium was aspirated and replaced with 200 μl of EGM-2 culture medium containing 100,000 cells per well. […] The EGM-2 medium was aspirated and replaced with 400 μl of fresh EGM-2 culture medium per well. […] Concentrated solutions of the test compounds in HBSS were prepared and placed in the incubator to equilibrate. […] ECIS (resistance) was monitored for 90 hours.

[3] = tested on: human retinal endothelial cells; experiment: Actin stress fiber formation (Example 13); conditions: for F-actin staining, agent alone: TNFα 1 ng/ml or S1P 1 μM alone, over the time course; for F-actin staining, danazol alone: 1 μM
[4] = tested on: human renal glomerular microvascular endothelial cells; experiment: Actin stress fiber formation (Example 13); conditions: for F-actin staining, agent alone: TNFα 1 ng/ml or S1P 1 μM alone, over the time course; for F-actin staining, danazol alone: 1 μM
[5] = tested on: human retinal endothelial cells; experiment: Actin stress fiber formation, TNFα (Example 9); conditions: 30 minutes
Experimental: Then, the medium was removed and replaced with 200 μl of IMDM medium supplemented with 0.1% fetal bovine serum (all from Lonza), and the cells were cultured under these growth factor and serum starved conditions for one hour to suppress actin polymerization. […] Immediately following addition of these compounds, TNFα (final concentration of 50 ng/ml) was added. […] All wells were then washed two times with 100 μl PBS. The cells were permeabilized using a 0.1% Triton X-100 in PBS for 5 minutes. All wells were then washed two times with 100 μl PBS, and 50 μl of a 1:40 dilution of rhodamine-phalloidin (Invitrogen) in PBS was added to the cells to stain for F-actin and left on the cells for 20 minutes at room temperature. All wells were then washed two times with 100 μl PBS.

[6] = tested on: human renal glomerular microvascular endothelial cells; experiment: ECIS resistance (Example 14); conditions: danazol 1 μM alone
Experimental: as §1

[7] = tested on: Primary human umbilical vein endothelial cells (HUVECs); experiment: HUVEC cell proliferation (Celltiter 96 AQueous One); format: cell-based
Experimental: Primary human umbilical vein endothelial cells (HUVECs) and EGM-2 growth medium were obtained from Cambrex (Walkersville, Md.). The cells were passaged in medium supplemented with 2% fetal calf serum (FCS) in tissue culture flasks at 37° C. and 5% CO2. Subculturing was performed using trypsin when 60-80% confluence was obtained as specified by the supplier.
Cryopreserved ampoules of passage 2 HUVECs were thawed and plated in 96 well tissue culture plates at 5,000 cells/cm^2. […] . In short, medium was aspirated from each well and the cells were washed with 200 μl […] (HBSS) from Cambrex warmed to 37° C. 100 μl diluted celltiter solution (15 μl stock+85 μl EGM-2 containing 0.1% FCS) were added to each well and incubated for an additional 4 hours. Optical density was determined by microplate reader using a 530 nm filter after blank subtraction and data presented as OD±standard deviation. The final concentration of ethanol in the wells was less then 0.2% and had no effect on cell proliferation or viability.
All data are presented as representative experiments done in triplicate. […] P<0.05 was considered statistically significant.

[8] = tested on: human retinal endothelial cells; experiment: TER of endothelial cell monolayers (Example 6); conditions: 1.0 μM
Experimental: (§2) Assays were also performed in the same manner using passage 8 human brain endothelial cells and passage 8 human umbilical vein endothelial cells.
(§3) An initial TER measurement was taken for each insert using EVOM^2 voltohmmeter connected to an STX100 electrode (both from World Precision Instruments). […] All data are presented as TER measurements/cm^2 of insert with TER of blank inserts subtracted.

[9] = tested on: human brain endothelial cells; experiment: TER of endothelial cell monolayers (Example 6); conditions: 1.0 μM
Experimental: as §2, §3

[10] = tested on: Retinal endothelial cells; experiment: F-actin (phalloidin) staining of endothelial cells; conditions: barrier-enhancing concentrations
Excerpt: Retinal endothelial cells stained with rhodamine conjugated phalloidin.

[11] = tested on: HUVECs; experiment: HUVEC tube formation assay; conditions: 18 hours
[12] = tested on: human umbilical vein endothelial cells; experiment: TER of endothelial cell monolayers (Example 6); conditions: 1.0 μM
Experimental: as §2, §3

[13] = tested on: endothelial cells; experiment: TEER across endothelial cell monolayers on transwell inserts; conditions: barrier-enhancing concentrations, within minutes of exposure
Excerpt: TEER measured across monolayers of endothelial cells grown on transwell inserts. Higher resistance equals greater barrier integrity.

[14] = tested on: patients with diabetic macular edema (DME); format: in vivo, human
Excerpt: Included were patients with DME and a central subfield retinal thickness of 300 μm or greater. A total of 34 patients constituted the safety set population. The efficacy evaluable population (n=23) was composed of patients from the safety set who completed 80% or greater of study medications at 4 weeks of treatment. The primary endpoint was change in central subfield retinal thickness from baseline to 12 weeks of treatment, and the secondary endpoints were change from baseline in retinal volume and Early Treatment Diabetic Retinopathy Study (ETDRS) best corrected visual acuity (BCVA) at week 12 of treatment. […] All treatments were administered orally twice a day.

[15] = tested on: human renal glomerular microvascular endothelial cells; experiment: ECIS resistance (Example 15); conditions: 1 μM
Experimental: Electrical resistance was measured using the electric cell-substrate impedance sensing (ECIS) system (ECISZθ, obtained from Applied Biophysics) with 8-well multiple electrode plates (8W10E). […] The fibronectin solution was removed, and 200 μl of EGM-2 culture medium (Lonza) was added to each well. The plates were connected to the ECISZθ system and were electrically stabilized. The EGM-2 medium was aspirated and replaced with 200 μl of EGM-2 culture medium containing 40,000 passage 6 cells per well. […] The EGM-2 medium was aspirated and replaced with 200 μl of fresh EGM-2 culture medium per well. […] The EGM-2 medium was aspirated and replaced with 200 μl of fresh EGM-2 culture medium without dexamethasone per well. […] Finally, the EGM-2 medium was aspirated and replaced with 200 μl of fresh EGM-2 culture medium without dexamethasone per well. […] Concentrated solutions of the test compounds in HBSS were prepared and placed in the incubator to equilibrate. […] ECIS (resistance) was monitored for 90 hours.

Compound: VEGF
- stress fiber development, stimulus alone ([1]; VEGF 25 ng/ml, 30 minutes): strong stress fiber development

Compound: CCCCCCCCCCCCC/C=C/[C@@H](O)[C@@H](N)COP(=O)(O)O [S1P, sphingosine-1 phosphate]
- start of ECIS increase compared to untreated cells, after treatment ([2]; S1P 1 μM alone): ≤ 15 min
- persistence of ECIS increase [2]: about 3 hours
- F-actin staining, agent alone [3]: showed actin cortical rings
- F-actin staining, agent alone [4]: showed actin cortical rings

Compound: TNFα
- stress fiber development, stimulus alone ([5]; TNFα 50 ng/ml): led to strong stress fiber development with intensely staining focal points
- F-actin staining, agent alone [3]: stress fibers were seen at all times
- F-actin staining, agent alone [4]: stress fibers were seen at all times

- ocular hypertension ([14]; in vivo): No ocular hypertension was detected
Compound: C#C[C@]1(O)CC[C@H]2[C@@H]3CCC4=Cc5oncc5C[C@]4(C)[C@H]3CC[C@@]21C [Danazol, 17α-pregna-2,4-dien-20-yno[2,3-d]-isoxazol-17β-ol]
- period of greatest ECIS increase [6]: 60 to 90 h
- OD (celltiter proliferation assay) ([7]; 24 hours, 10 μM, nil 0.414±0.06): 0.288±0.037
- OD (celltiter proliferation assay) ([7]; 24 hours, 100 μM, nil 0.414±0.06): 0.162±0.017
- OD (celltiter proliferation assay) ([7]; 48 hours, 1 μM, nil 0.629±0.095): 0.378±0.037
- OD (celltiter proliferation assay) ([7]; 48 hours, 10 μM, nil 0.629±0.095): 0.241±0.012
- OD (celltiter proliferation assay) ([7]; 48 hours, 100 μM, nil 0.629±0.095): 0.19±0.033
- OD (celltiter proliferation assay) ([7]; 72 hours, 0.1 μM, nil 1.113±0.054): 0.798±0.037
- OD (celltiter proliferation assay) ([7]; 72 hours, 1 μM, nil 1.113±0.054): 0.484±0.022
- OD (celltiter proliferation assay) ([7]; 72 hours, 10 μM, nil 1.113±0.054): 0.229±0.016
- OD (celltiter proliferation assay) ([7]; 72 hours, 100 μM, nil 1.113±0.054): 0.156±0.018
- F-actin staining pattern ([5]; 10.0 μM): stress fibers with multiple focal points were detected
- stress fiber development with TNFα ([5]; TNFα 50 ng/ml, danazol 0.1 μM or 10 μM, LY294002 10 μM): decreased the number of cells exhibiting stress fiber development with TNFα
- TER ([8]; 0 Hours, per cm^2 of insert, blank subtracted, None 32.3): 21.7
- TER ([8]; 24 Hours, None 96.0): 132.3
- TER ([8]; 48 Hours, None 144.4): 182.3
- TER ([8]; 72 Hours, None 148.0): 217.7
- TER ([8]; 144 Hours, None 219.7): 234.8
- TER ([9]; 0 Hours, per cm^2 of insert, blank subtracted, None 41.4): 32.3
- TER ([9]; 24 Hours, None 115.7): 139.9
- TER ([9]; 48 Hours, None 176.3): 188.4
- TER ([9]; 72 Hours, None 154.0): 149.5
- TER ([9]; 144 Hours, None 151.5): 125.8
- start of ECIS increase compared to untreated cells, after treatment ([2]; 1.0 μM): 90 to 120 min
- persistence of ECIS increase [2]: 5 h
- F-actin staining ([10]; within minutes of exposure): f-actin cortical ring formation
- stress fiber formation upon stimulation ([10]; stimulation with TNF-a or thrombin): counteracted the formation of stress fibers
- effect on tube formation ([11]; 1 μM): no effect
- effect on tube formation ([11]; 10 μM): no effect
- F-actin staining, danazol alone ([3]; 15 minutes): perinuclear staining
- F-actin staining, danazol alone ([3]; 3 hours): diffuse staining throughout the cells with ruffled edges on many of the cells
- F-actin staining, danazol alone ([3]; 24 hours): staining similar to untreated controls
- F-actin staining, danazol alone ([4]; 15 minutes): perinuclear staining
- F-actin staining, danazol alone ([4]; 3 hours): diffuse staining throughout the cells with ruffled edges on many of the cells
- F-actin staining, danazol alone ([4]; 24 hours): staining similar to untreated controls
- TER ([12]; 0 Hours, per cm^2 of insert, blank subtracted, None 82.3): 70.2
- TER ([12]; 24 Hours, None 217.2): 246.0
- TER ([12]; 48 Hours, None 276.3): 364.1
- TER ([12]; 72 Hours, None 226.8): 270.7
- TER ([12]; 144 Hours, None 227.3): 286.4
- endothelial barrier function (TEER) [13]: increases in endothelial barrier function
- change of VEGF stress fiber pattern ([1]; 0.1 μM): made the stress fibers less pronounced and some diffuse staining appeared
- change of VEGF stress fiber pattern ([1]; 1.0 μM): showed fewer thick stress fibers, but focal points were seen on contact surfaces
- change of VEGF stress fiber pattern ([1]; 10.0 μM): showed strong stress fiber development with focal points
- F-actin staining pattern ([1]; 10.0 μM, no VEGF): there was no longer any diffuse staining, and stress fiber development and focal points were seen
- effect on retinal thickness versus baseline BMI ([14]; 10 mg dose): became less significant with increasing baseline BMI
- effect on retinal thickness versus baseline BMI ([14]; 30 mg danazol dose): became more significant with increasing baseline BMI
- patients with a clinically relevant change in OCT after 12 weeks of treatment ([14]; 30 mg danazol, placebo 2 of 7 patients): 6/7
- Retinal volume compared with placebo ([14]; 15-mg group, P=0.05): decreased
- subjects with a significant decrease in retinal thickness (more than 11%) at 12 weeks ([14]; DME patients, oral 15-mg dose (15 mg twice daily), 6 of 7 patients, placebo 29%): 86%
- subjects with BCVA improvement of at least 1 category (ICD-9-CM vision loss) ([14]; all patients treated with danazol, placebo 14%): 47%
- treatment-related adverse events (number) ([14]; in vivo): Three
- persistence of ECIS increase [15]: about 90 hours
- start of ECIS increase compared to untreated cells ([15]; medium without dexamethasone): about 3 hours
